This note sets out measurements from patent US10968203B2, “Pyrimidinyl-pyridyloxy-naphthyl compounds and methods of treating IRE1-related diseases and disorders” (Genentech, Inc., priority 2017, dated 2021).

pIC50: −log10 of the molar value. Where a name gives a salt, the structure may show the parent alone. Read-outs that look alike come from different tables or passages of the source.

For this assay, the system named is XBP1s-luc 293 LUC. Description: cellular PD assay, XBP1s-LUC reporter (Example 903). The assay is classed as cell-based. Conditions: read-out: XBP1s-luc 293 LUC (IC50). The essentials: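 A luciferase fusion, in frame and expressed only when the XBP1 transcript is spliced, served as the readout of cellular IRE1α activity in an XBP1-Luc reporter line.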

Broadly, the pIC50 is the IC50 on a negative log10 scale, so that one unit is a factor of ten. As to `Cc1ccc2c(NC[C@@H](O)C(F)F)cccc2c1Oc1ncccc1-c1ccnc(N[C@H]2CCCNC2)n1` (single isomer, unassigned) [Example 476, hydrochloride], the pIC50 (Table 2) is 6.89. As for `Cc1ccc2c(NCCC(C)(C)C#N)cccc2c1Oc1ncccc1-c1ccnc(N[C@H]2CCCNC2)n1` [Example 347, (S)-2,2-Dimethyl-4-((6-methyl-5-((3-(2-(piperidin-3-ylamino)pyrimidin-4-yl)pyridin-2-yl)oxy)naphthalen-1-yl)amino)butanenitrile], the pIC50 (Table 1) was 7.32. Consider `O=S(=O)(CCC(F)(F)F)Nc1cccc2c(Oc3ncccc3-c3ccnc(N[C@H]4CCCNC4)n3)cccc12` [Example 451], for which the pIC50 (Table 2) is 6.46. For the compound `CC[C@@H]1CCN(c2cccc3c(Oc4ncccc4-c4ccnc(N[C@H]5CCCNC5)n4)c(C)ccc23)C1=O` (single isomer, unassigned) [Example 266], the pIC50 (Table 1) was 6.92. On the same count and under the same terms, under `CCCS(=O)(=O)Nc1cccc2c(Oc3ncccc3-c3ccnc(N[C@H]4CC[C@H](N)CC4)n3)c(C)ccc12` [Example 158, N-(5-((3-(2-(((trans)-4-Aminocyclohexyl)amino)pyrimidin-4-yl)pyridin-2-yl)oxy)-6-methylnaphthalen-1-yl)propane-1-sulfonamide] stands 6.33.

As to `COCCCNc1cccc2c(Oc3ncccc3-c3ccnc(N[C@H]4CCCNC4)n3)c(C)ccc12` [Example 430, 4-[2-[[5-(3-Methoxypropylamino)-2-methyl-1-naphthyl]oxy]-3-pyridyl]-N-[(3S)-3-piperidyl]pyrimidin-2-amine hydrochloride], the pIC50 (Table 2) is 6.56. As for `Cc1ccc2c(NS(=O)(=O)CCl)cccc2c1Oc1ncccc1-c1ccnc(N[C@H]2CCCNC2)n1` [Example 151, (S)-1-Chloro-N-(6-methyl-5-((3-(2-(piperidin-3-ylamino)pyrimidin-4-yl)pyridin-2-yl)oxy)naphthalen-1-yl)methanesulfonamide], the pIC50 (Table 1) was 6.85. Same read-out and setting: under `Cc1ccc2c(N3CCN(C)S3(=O)=O)cccc2c1Oc1ncccc1-c1ccnc(N[C@H]2CCCNC2)n1` [Example 247, (S)-2-Methyl-5-(6-methyl-5-((3-(2-(piperidin-3-ylamino)pyrimidin-4-yl)pyridin-2-yl)oxy)naphthalen-1-yl)-1,2,5-thiadiazolidine 1,1-dioxide] stands 6.44; under `Cc1ccc2c(NC(=O)CC(C)(C)C)c(F)ccc2c1Oc1ncccc1-c1ccnc(N[C@H]2CCCNC2)n1` [Example 275, (S)—N-(2-Fluoro-6-methyl-5-((3-(2-(piperidin-3-ylamino)pyrimidin-4-yl)pyridin-2-yl)oxy)naphthalen-1-yl)-3,3-dimethylbutanamide], 7.12.

As to `Cc1ccc2c(NS(=O)(=O)CCC(F)(F)F)c(F)ccc2c1Oc1ncccc1-c1ccnc(N[C@@H]2CNC[C@@H](F)C2)n1` (single isomer, unassigned) [Example 432, hydrochloride], the pIC50 (Table 2) was 7.55. As for `Cc1ccc2c(NS(=O)(=O)CC(C)C)c(F)ccc2c1Oc1ncccc1-c1ccnc(N[C@H]2CCCNC2)n1` [Example 279, (S)—N-(2-Fluoro-6-methyl-5-((3-(2-(piperidin-3-ylamino)pyrimidin-4-yl)pyridin-2-yl)oxy)naphthalen-1-yl)-2-methylpropane-1-sulfonamide], the pIC50 (Table 1) is 7.61. The same measure, in the same setting: the figure for `CCCS(=O)(=O)Nc1c(F)ccc2c(Oc3ncccc3-c3ccnc(N[C@H]4CCCNC4)n3)c(C)ccc12` [Example 221, (S)—N-(2-Fluoro-6-methyl-5-((3-(2-(piperidin-3-ylamino)pyrimidin-4-yl)pyridin-2-yl)oxy)naphthalen-1-yl)propane-1-sulfonamide] is 7.43; for `CCCS(=O)(=O)Nc1cccc2c(Oc3ncccc3-c3ccnc(N[C@H]4CCCNC4)n3)c(F)ccc12` [Example 305, (S)—N-(6-Fluoro-5-((3-(2-(piperidin-3-ylamino)pyrimidin-4-yl)pyridin-2-yl)oxy)naphthalen-1-yl)propane-1-sulfonamide] it is 6.32. On the same count and under the same terms, under `Cc1ccc2c(NS(=O)(=O)c3cccnc3)cccc2c1Oc1ncccc1-c1ccnc(N[C@H]2CCCNC2)n1` [Example 149, (S)—N-(6-Methyl-5-((3-(2-(piperidin-3-ylamino)pyrimidin-4-yl)pyridin-2-yl)oxy)naphthalen-1-yl)pyridine-3-sulfonamide] stands 6.31; under `Cc1ccc2c(NC(=O)[C@@H]3C[C@@H]3F)cccc2c1Oc1ncccc1-c1ccnc(N[C@H]2CCCNC2)n1` (relative stereo) [Example 212, (1S,2S)-2-Fluoro-N-[6-methyl-5-[[3-[2-[[(3S)-3-piperidyl]amino]pyrimidin-4-yl]-2-pyridyl]oxy]-1-naphthyl]cyclopropanecarboxamide], 6.91. The same measure, in the same setting: the figure for `Cc1ccc2c(NC[C@H](O)C(F)(F)F)c(F)ccc2c1Oc1ncccc1-c1ccnc(N[C@H]2CCCNC2)n1` [Example 377, (S)-1,1,1-Trifluoro-3-((2-fluoro-6-methyl-5-((3-(2-((S)-piperidin-3-ylamino)pyrimidin-4-yl)pyridin-2-yl)oxy)naphthalen-1-yl)amino)propan-2-ol] is 7.99; for `Cc1ccc2c(NC(=O)[C@@H]3CC34CC4)c(F)ccc2c1Oc1ncccc1-c1ccnc(N[C@H]2CCCNC2)n1` (single isomer, unassigned) [Example 380] it is 7.25; for `COC(C)CS(=O)(=O)Nc1cccc2c(Oc3ncccc3-c3ccnc(N[C@H]4CCCNC4)n3)c(C)ccc12` (stereo partly drawn) [Example 138, 2-Methoxy-N-(6-methyl-5-((3-(2-((S)-piperidin-3-ylamino)pyrimidin-4-yl)pyridin-2-yl)oxy)naphthalen-1-yl)propane-1-sulfonamide] it is 6.41. For the compound `Cc1ccc2c(N3CCC(C)S3(=O)=O)cccc2c1Oc1ncccc1-c1ccnc(N[C@H]2CCCNC2)n1` (mixture of isomers) [Example 245, 5-Methyl-2-(6-methyl-5-((3-(2-((S)-piperidin-3-ylamino)pyrimidin-4-yl)pyridin-2-yl)oxy)naphthalen-1-yl)isothiazolidine 1,1-dioxide], for the setting “Table 1”, the pIC50 was 6.53.

As for `Cc1c(F)c(NS(=O)(=O)CCC(F)(F)F)c2ccccc2c1Oc1ncccc1-c1ccnc(N[C@H]2CCCNC2)n1` [Example 482, (S)-3,3,3-Trifluoro-N-(2-fluoro-3-methyl-4-((3-(2-(piperidin-3-ylamino)pyrimidin-4-yl)pyridin-2-yl)oxy)naphthalen-1-yl)propane-1-sulfonamide], the pIC50 (Table 2) was 7.19. On the same count and under the same terms, under `Cc1ccc2c(NS(=O)(=O)N3CCCC3)c(F)ccc2c1Oc1ncccc1-c1ccnc(N[C@H]2CCCNC2)n1` [Example 428, N-[2-Fluoro-6-methyl-5-[[3-[2-[[(3S)-3-piperidyl]amino]pyrimidin-4-yl]-2-pyridyl]oxy]-1-naphthyl]pyrrolidine-1-sulfonamide hydrochloride] stands 7.55.

Take `Cc1ccc2c(NS(=O)(=O)Cc3ccccc3F)c(F)ccc2c1Oc1ncccc1-c1ccnc(N[C@@H]2CNC[C@H](C)C2)n1` [Example 477, N-(2-Fluoro-6-methyl-5-((3-(2-(((3S,5R)-5-methylpiperidin-3-yl)amino)pyrimidin-4-yl)pyridin-2-yl)oxy)naphthalen-1-yl)-1-(2-fluorophenyl)methanesulfonamide]: the pIC50 (Table 2) was 8.15. Consider `Cc1ccc2c(NCCC(F)(F)F)cccc2c1Oc1ncccc1-c1ccnc(N[C@H]2CCCNC2)n1` [Example 348, (S)-4-(2-((2-Methyl-5-((3,3,3-trifluoropropyl)amino)naphthalen-1-yl)oxy)pyridin-3-yl)-N-(piperidin-3-yl)pyrimidin-2-amine], for which the negative-log IC50 (pIC50) (Table 1) was 7.10. For the compound `CCC(C)S(=O)(=O)Nc1cccc2c(Oc3ncccc3-c3ccnc(N[C@H]4CCCNC4)n3)c(C)ccc12` (mixture of isomers) [Example 134, N-(6-Methyl-5-((3-(2-((S)-piperidin-3-ylamino)pyrimidin-4-yl)pyridin-2-yl)oxy)naphthalen-1-yl) butane-2-sulfonamide], for the setting “Table 1”, the pIC50 was 6.59.

As for `Cc1c(F)c(NS(=O)(=O)Cc2ccccc2)c2ccccc2c1Oc1ncccc1-c1ccnc(N[C@H]2CCCNC2)n1` [Example 480, (S)—N-(2-Fluoro-3-methyl-4-((3-(2-(piperidin-3-ylamino)pyrimidin-4-yl)pyridin-2-yl)oxy)naphthalen-1-yl)-1-phenylmethanesulfonamide], for the setting “Table 2”, the pIC50 is 8.15.

Consider `O=S(=O)(Cc1ccccc1)Nc1cccc2c(Oc3ncccc3-c3ccnc(N[C@H]4CCCNC4)n3)cccc12` [Example 452, (S)-1-Phenyl-N-(5-((3-(2-(piperidin-3-ylamino)pyrimidin-4-yl)pyridin-2-yl)oxy)naphthalen-1-yl)methanesulfonamide], for which the pIC50 (Table 2) is 7.72.

Regarding `CCCS(=O)(=O)Nc1cccc2c(Oc3ncccc3-c3ccnc(N[C@H]4CCCNC4)n3)c(C)ccc12` [Example 104, (S)—N-(6-Methyl-5-(3-(2-(piperidin-3-ylamino)pyrimidin-4-yl)pyridin-2-yloxy)naphthalen-1-yl)propane-1-sulfonamide hydrochloride], under “Table 1”, the pIC50 was 6.88.

`Cc1ccc2c(NC3CCCC[C@H]3O)cccc2c1Oc1ncccc1-c1ccnc(N[C@H]2CCCNC2)n1` (stereo partly drawn) [Example 384, trans-2-((6-Methyl-5-((3-(2-((S)-piperidin-3-ylamino)pyrimidin-4-yl)pyridin-2-yl)oxy)naphthalen-1-yl)amino)cyclohexanol]: where the note is “Table 1”, the pIC50 was 6.84. Take `Cc1ccc2c(NS(=O)(=O)CF)cccc2c1Oc1ncccc1-c1ccnc(N[C@H]2CCCNC2)n1` [Example 159, (S)-1-Fluoro-N-(6-methyl-5-(3-(2-(piperidin-3-ylamino)pyrimidin-4-yl)pyridin-2-yloxy)naphthalen-1-yl)methanesulfonamide]: the pIC50 (Table 1) was 6.76. For `Cc1ccc2c(NS(=O)(=O)CC(C)C(F)(F)F)c(F)ccc2c1Oc1ncccc1-c1ccnc(N[C@H]2CCCNC2)n1` (single isomer, unassigned) [Example 454, hydrochloride], the negative-log IC50 (pIC50) (Table 2) is 7.62.
